From article PMC5011342, “A high throughput drug screening assay to identify compounds that promote oligodendrocyte differentiation using acutely dissociated and purified oligodendrocyte precursor cells” (BMC Research Notes, 2016)
Where two headings read alike, the source gives them in different places.

Legend:
[1] = tested on: acutely dissociated and purified rat OPCs; assay: Acute OL differentiation assay (MBP expression/cell, immunofluorescent image quantification); format: cell-based; conditions: sheet "All OLga data"
Method in brief: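 This acute differentiation assay used purified rat OPCs from postnatal day 6–7 pups, seeded into PDL/laminin-coated 96-well plates in differentiation medium lacking PDGF and FGF. Compounds were applied in quadruplicate after a 1–2 h preincubation at 37 °C, 10 % CO2, with 0.1 % DMSO negative and 40 ng/ml T3 positive controls in eight wells. After fixation on DIV4, anti-MBP immunofluorescence images yielded MBP expression/cell.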

expanded OPCs = assay: cells; conditions: for viability at 0.1 µM / viability at 1 µM / viability at 10 µM: Rattus norvegicus, 72 h
Method in brief: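 Toxicity screen: compounds added at 0.1, 1 and 10 µM to PDGF-AA-expanded OPCs in 96-well plates, 3-day incubation at 37 °C, 10% CO2, then alamarBlue 1:10 for 4 h with fluorescence readout. Results set screening doses of 10/2, 2/0.4 or 0.4/0.08 µM.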

[2] = Rattus norvegicus, test compound at 2 uM, NCC library screen, relative to quetiapine, read-out: 2 uM (% Quet)
[3] = Rattus norvegicus, test compound at 10 uM, NCC library screen, relative to quetiapine, read-out: 10 uM (% Quet)
[4] = read-out: 0.1 µM (% DMSO), alamarBlue viability, NCC library compound at 0.1 µM, sheet "All Tox data"
[5] = read-out: 1 µM (% DMSO), alamarBlue viability, NCC library compound at 1 µM, sheet "All Tox data"
[6] = read-out: 10 µM (% DMSO), alamarBlue viability, NCC library compound at 10 µM, sheet "All Tox data"
[7] = Rattus norvegicus, 0.4 uM test compound, relative to quetiapine, read-out: OL differentiation, 0.4 uM (% Quet)
[8] = Rattus norvegicus, 2 uM test compound, relative to quetiapine, read-out: OL differentiation, 2 uM (% Quet)
[9] = read-out: 0.1 µM (% DMSO), alamarBlue viability of expanded OPCs, compound at 0.1 µM, sheet All Tox data
[10] = read-out: 1 µM (% DMSO), alamarBlue viability of expanded OPCs, compound at 1 µM, sheet All Tox data
[11] = read-out: 10 µM (% DMSO), alamarBlue viability of expanded OPCs, compound at 10 µM, sheet All Tox data
[12] = Rattus norvegicus, 10 uM test compound, relative to quetiapine, read-out: OL differentiation, 10 uM (% Quet)
[13] = alamarBlue viability of expanded OPCs, compound at 0.1 µM, relative to DMSO control
[14] = alamarBlue viability of expanded OPCs, compound at 1 µM, relative to DMSO control
[15] = alamarBlue viability of expanded OPCs, compound at 10 µM, relative to DMSO control
[16] = Rattus norvegicus, test compound at 0.4 uM, NCC library screen, relative to quetiapine, read-out: 0.4 uM (% Quet)

| SMILES | activation at 2 µM [1, 2] [%] | viability at 0.1 µM (expanded OPCs; [4]) [%] | viability at 1 µM (expanded OPCs; [5]) [%] | viability at 10 µM (expanded OPCs; [6]) [%] | activation at 2 µM [1, 8] [%] | viability at 0.1 µM (expanded OPCs; [9]) [%] | viability at 1 µM (expanded OPCs; [10]) [%] | viability at 10 µM (expanded OPCs; [11]) [%] | activation at 10 µM [1, 12] [%] | also measured |
| --- | --- | --- | --- | --- | --- | --- | --- | --- | --- | --- |
| CC[C@]1(O)CC[C@H]2[C@@H]3CCC4=CCCC[C@@H]4[C@H]3CC[C@@]21C [Ethylestrenol] | -2.2 | 98 | 96.1 | 54.2 |  |  |  |  |  | activation at 10 µM [1, 3]: -45.5% |
| CCOC(=O)C1=C(C)NC(C)=C(C(=O)OC)C1c1cccc([N+](=O)[O-])c1 (centres unmarked) [Nitrendipine] |  |  |  |  | -27 | 104 | 90.7 | 35.6 |  | activation at 0.4 µM [1, 7]: -4.7% |
| CC(C)OC(=O)CCC/C=C\C[C@@H]1[C@@H](CC[C@@H](O)CCc2ccccc2)[C@H](O)C[C@@H]1O [Latanoprost] |  |  |  |  | -37.3 | 85.2 | 91.5 | 81.4 | -143 |  |
| c1ccc2c(CC3=NCCN3)cccc2c1 [Naphazoline] | -4.8 |  |  |  |  |  |  |  |  | activation at 10 µM [1, 3]: -45.4%; 0.1 µM (% DMSO) (expanded OPCs; [13]): 92.9 % DMSO; 1 µM (% DMSO) (expanded OPCs; [14]): 92.8 % DMSO; 10 µM (% DMSO) (expanded OPCs; [15]): 78.6 % DMSO |
| COCc1c(C(C)C)nc(C(C)C)c(/C=C/[C@@H](O)C[C@@H](O)CC(=O)O)c1-c1ccc(F)cc1 [Cerivastatin] |  |  |  |  | -191 | 97.3 | 52.3 | 11.5 |  | activation at 0.4 µM [1, 7]: -38.8% |
| Cc1cccc(C)c1NC(=O)C(C)N (centres unmarked) [Tocainide] |  |  |  |  | 1.2 | 94.9 | 96.2 | 98 | -23.2 |  |
| CC(C)(C)NCC(O)c1cc(O)cc(O)c1 (centres unmarked) [Terbutaline] |  |  |  |  |  |  |  |  |  | activation at 2 µM ([1]; Rattus norvegicus, test compound at 2 uM, MBP expression relative to quetiapine, NCC library screen, read-out: 2 uM (% Quet)): 8.9%; activation at 10 µM ([1]; Rattus norvegicus, test compound at 10 uM, MBP expression relative to quetiapine, NCC library screen, read-out: 10 uM (% Quet)): 12.1%; 0.1 µM (% DMSO) (expanded OPCs; [13]): 91.9 % DMSO; 1 µM (% DMSO) (expanded OPCs; [14]): 95.2 % DMSO; 10 µM (% DMSO) (expanded OPCs; [15]): 89.9 % DMSO |
| Clc1ccc2c(c1)C(N1CCNCC1)=Nc1ccccc1O2 [Amoxapine] |  | 62 | 40 | 19.2 |  |  |  |  |  | activation at 0.08 µM ([1]; Rattus norvegicus, test compound at 0.08 uM, NCC library screen, relative to quetiapine, read-out: 0.08 uM (% Quet)): 13%; activation at 0.4 µM [1, 16]: -10.8% |
| CC(C)c1ccc2c(c1)c(SC(C)(C)C)c(CC(C)(C)C(=O)O)n2Cc1ccc(Cl)cc1 [MK 886] |  |  |  |  |  |  |  |  |  | 0.4 uM (% Quet) ([1]; test compound at 0.4 uM, NCC library screen, relative to quetiapine): 51.1 % Quet; 2 uM (% Quet) ([1]; test compound at 2 uM, NCC library screen, relative to quetiapine): -93.5 % Quet; 0.1 µM (% DMSO) (expanded OPCs; alamarBlue viability, NCC library compound at 0.1 µM, sheet "All Tox data"): 97.3 % DMSO; 1 µM (% DMSO) (expanded OPCs; alamarBlue viability, NCC library compound at 1 µM, sheet "All Tox data"): 107.0 % DMSO; 10 µM (% DMSO) (expanded OPCs; alamarBlue viability, NCC library compound at 10 µM, sheet "All Tox data"): 10.8 % DMSO |
| C[C@H]1[C@H](OC(=O)CCC(=O)O)O[C@@H]2O[C@@]3(C)CC[C@H]4[C@H](C)CC[C@@H]1[C@@]24OO3 [Artesunate] |  |  |  |  | -39.6 | 93.2 | 101 | 74 | -122 |  |
| CCN(CC)C(=O)C1(c2ccccc2)CC1CN (centres unmarked) [Milnacipran] |  | 88.4 | 85.1 | 71.2 | -17.2 |  |  |  | -8.5 |  |
| Clc1ccc(COC(Cn2ccnc2)c2ccc(Cl)cc2Cl)cc1 (centres unmarked) [Econazole] | -178 |  |  |  |  |  |  |  |  | activation at 0.4 µM [1, 16]: 90%; 0.1 µM (% DMSO) (expanded OPCs; [13]): 178.0 % DMSO; 1 µM (% DMSO) (expanded OPCs; [14]): 195.6 % DMSO; 10 µM (% DMSO) (expanded OPCs; [15]): 29.6 % DMSO |
| COc1ccc(CC2c3cc(OC)c(OC)cc3CC[N+]2(C)CCC(=O)OCCCCCOC(=O)CC[N+]2(C)CCc3cc(OC)c(OC)cc3C2Cc2ccc(OC)c(OC)c2)cc1OC (centres unmarked) [Atracurium] | -83 | 84.6 | 75.3 | 56.2 |  |  |  |  |  | activation at 0.4 µM [1, 16]: 9.5% |
| COc1cc(N)c(Cl)cc1C(=O)NC1CN2CCC1CC2 (centres unmarked) [Zacopride] |  |  |  |  | 6.8 | 87 | 88.6 | 91.9 | 13 |  |
| CCOc1cc(CC(=O)N[C@@H](CC(C)C)c2ccccc2N2CCCCC2)ccc1C(=O)O [Repaglinide] | 13.8 | 90.5 | 96.8 | 125 |  |  |  |  |  | activation at 10 µM [1, 3]: -23.7% |
| CNC(=C[N+](=O)[O-])NCCSCc1ccc(CN(C)C)o1 [Ranitidine] | -29.4 |  |  |  |  |  |  |  |  | activation at 10 µM [1, 3]: -7.9%; 0.1 µM (% DMSO) (expanded OPCs; [13]): 109.0 % DMSO; 1 µM (% DMSO) (expanded OPCs; [14]): 105.8 % DMSO; 10 µM (% DMSO) (expanded OPCs; [15]): 106.7 % DMSO |
